Test results: patent US20140005165A1, “SUBSTITUTED 3-AZABICYCLO[3.1.0]HEXANE DERIVATIVES USEFUL AS CCR2 ANTAGONISTS” (priority 2011, published 2014)

biological target: T1, human CCR2 (Homo sapiens, UniProt P41597); assay: CCR2 Membrane Binding Assay (SPA radio-ligand binding, 125I-rhMCP-1); details: membranes from Ba/F3 cells transfected with human CCR2; 0.03 nM 125I-rhMCP-1; 4 h room temperature
T1 construct: expressed in transfected cells; host or cells: Ba/F3 cells (membrane preparation)
Experimental: The radio-ligand binding assay was done using scintillation proximity assay (SPA) technology. Briefly, membranes (1 μg per assay point) from Ba/F3 cells transfected with human CCR2, and wheat germ agglutinin-coated SPA beads (80 μg per point; Amersham, Arlington Heights, Ill.), were pre-incubated for 30 min at room temperature in CCR2 buffer (50 mM HEPES (pH=7.4), 10 mM MgCl2, 10 mM NaCl, 1 mM CaCL2, 0.1% BSA, 10 μg/ml Saponin). At this point pre-bound SPA bead, membrane complex was incubated at room temperature for 4 h with varying concentrations of punitive CCR2 antagonists (in 1% DMSO, final) and 0.03 nM ^125I-rhMCP-1 in CCR2Buffer (S.A. 2200 Ci/mmol, PerkinElmer Life and Analytical Science, Boston, Mass.; NEX332). Binding competition was measured using a 1450 Microbeta Trilux counter (Wallac, Gaithersburg, Md.). Binding constants (IC50 and slope) were calculated using GraphPad Prism software (GraphPad Software, Inc., La Jolla Calif.).

T1 sequence (P41597 whole entry): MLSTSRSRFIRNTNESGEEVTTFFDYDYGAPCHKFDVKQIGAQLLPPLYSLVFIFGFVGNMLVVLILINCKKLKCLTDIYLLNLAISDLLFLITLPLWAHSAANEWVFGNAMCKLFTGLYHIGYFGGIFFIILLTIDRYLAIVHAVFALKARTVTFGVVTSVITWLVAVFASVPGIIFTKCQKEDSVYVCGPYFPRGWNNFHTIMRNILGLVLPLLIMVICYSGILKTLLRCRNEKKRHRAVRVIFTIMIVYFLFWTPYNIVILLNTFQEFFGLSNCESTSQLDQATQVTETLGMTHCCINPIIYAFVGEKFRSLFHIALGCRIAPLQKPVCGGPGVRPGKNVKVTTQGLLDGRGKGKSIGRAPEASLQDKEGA

Row | IC50 | Structure (SMILES)
1 | 3.5 nM | O=C(CNC(=O)[C@H]1[C@@H]2CN(C3CCC(c4ccccc4)CC3)C[C@@H]21)Nc1cccc(C(F)(F)F)c1 (some centres unmarked) [Compound 4]

same assay, conditions: membranes from Ba/F3 cells transfected with human CCR2; 0.03 nM 125I-rhMCP-1; class symbols

Row | Structure (SMILES) | IC50 | IC50 (nM)
2 | O=C(NCCc1cccc(C(F)(F)F)c1)C1[C@H]2CN(C3CCCCC3)C[C@@H]12 (some centres unmarked) [Compound 1] | 51 to 200 nM | –
3 | O=C(CNC(=O)[C@H]1[C@@H]2CN(C3CCCCC3)C[C@@H]21)Nc1cccc(C(F)(F)F)c1 [Compound 2] | 51 to 200 nM | –
4 | O=C([C@H]1[C@@H]2CN([C@H]3CC[C@@H](c4ccccc4)CC3)C[C@@H]21)N1CC[C@@H](Nc2nccc(C(F)(F)F)n2)C1 [Compound 6] | 51 to 200 nM | –
5 | FC(F)(F)c1cccc(CN(Cc2cccc(C(F)(F)F)c2)c2nnc([C@H]3[C@@H]4CN([C@H]5CC[C@@H](c6ccccc6)CC5)C[C@@H]43)o2)c1 [Compound 8] | 201 to 700 nM | –
6 | CCC(C)N1C[C@@H]2[C@H](C1)[C@H]2C(=O)NCC(=O)Nc1cccc(C(F)(F)F)c1 (some centres unmarked) [Compound 9] | 51 to 200 nM | –
7 | O=C(NCCc1ccccc1)[C@H]1[C@@H]2CN([C@H]3CC[C@@H](c4ccccc4)CC3)C[C@@H]21 [Compound 10] | – | D (compounds with IC50 values between 701 nM and 110 nM are designated as D class compounds)
8 | O=C(CNC(=O)[C@H]1[C@@H]2CN(C3CCCC3)C[C@@H]21)Nc1cccc(C(F)(F)F)c1 [Compound 11] | 51 to 200 nM | –
9 | CC(C1CC1)N1C[C@@H]2[C@H](C1)[C@H]2C(=O)NCC(=O)Nc1cccc(C(F)(F)F)c1 (some centres unmarked) [Compound 12] | 201 to 700 nM | –
10 | CCC(CC)N1C[C@@H]2[C@H](C1)[C@H]2C(=O)NCC(=O)Nc1cccc(C(F)(F)F)c1 [Compound 13] | 51 to 200 nM | –
11 | CCCC(C)N1C[C@@H]2[C@H](C1)[C@H]2C(=O)NCC(=O)Nc1cccc(C(F)(F)F)c1 (some centres unmarked) [Compound 14] | – | D (compounds with IC50 values between 701 nM and 110 nM are designated as D class compounds)
12 | COCC(C)N1C[C@@H]2[C@H](C1)[C@H]2C(=O)NCC(=O)Nc1cccc(C(F)(F)F)c1 (some centres unmarked) [Compound 15] | 201 to 700 nM | –
13 | O=C(NC1Cc2ccccc2C1)[C@H]1[C@@H]2CN([C@H]3CC[C@@H](c4ccccc4)CC3)C[C@@H]21 [Compound 16] | – | D (compounds with IC50 values between 701 nM and 110 nM are designated as D class compounds)
14 | CC(C)N1C[C@@H]2C(C(=O)NCCc3cccc(C(F)(F)F)c3)[C@@H]2C1 (some centres unmarked) [Compound 18] | 201 to 700 nM | –
15 | CC1CCC(N2C[C@@H]3[C@H](C2)[C@H]3C(=O)NCC(=O)Nc2cccc(C(F)(F)F)c2)C1 (some centres unmarked) [Compound 19] | 201 to 700 nM | –
16 | CC(N1C[C@@H]2[C@H](C1)[C@H]2C(=O)NCC(=O)Nc1cccc(C(F)(F)F)c1)C1(C)CC1 (some centres unmarked) [Compound 20] | – | D (compounds with IC50 values between 701 nM and 110 nM are designated as D class compounds)
17 | O=C(CNC(=O)C1C2CN(C3CCOCC3)CC21)Nc1cccc(C(F)(F)F)c1 (centres unmarked) [Compound 21] | 51 to 200 nM | –
18 | O=C(CNC(=O)[C@H]1[C@@H]2CN(C3CCCOC3)C[C@@H]21)Nc1cccc(C(F)(F)F)c1 (some centres unmarked) [Compound 22] | 51 to 200 nM | –
19 | O=C([C@H]1[C@@H]2CN([C@H]3CC[C@@H](c4ccccc4)CC3)C[C@@H]21)N1CC(Oc2ccccc2)C1 [Compound 25] | – | D (compounds with IC50 values between 701 nM and 110 nM are designated as D class compounds)
20 | O=C1CCC(N2C[C@@H]3[C@H](C2)[C@H]3C(=O)NCC(=O)Nc2cccc(C(F)(F)F)c2)CC1 [Compound 29] | – | D (compounds with IC50 values between 701 nM and 110 nM are designated as D class compounds)
21 | O=C(CNC(=O)[C@H]1[C@@H]2CN(C3CCSCC3)C[C@@H]21)Nc1cccc(C(F)(F)F)c1 [Compound 35] | – | D (compounds with IC50 values between 701 nM and 110 nM are designated as D class compounds)
22 | CC=C1CCC(N2C[C@@H]3[C@H](C2)[C@H]3C(=O)NCC(=O)Nc2cccc(C(F)(F)F)c2)CC1 (some centres unmarked) [Compound 37] | – | D (compounds with IC50 values between 701 nM and 110 nM are designated as D class compounds)
23 | COC1CCC(N2C[C@@H]3[C@H](C2)[C@H]3C(=O)NCC(=O)Nc2cccc(C(F)(F)F)c2)CC1 (some centres unmarked) [Compound 39] | – | D (compounds with IC50 values between 701 nM and 110 nM are designated as D class compounds)
24 | CC(CCc1ccccc1)N1C[C@@H]2[C@H](C1)[C@H]2C(=O)NCC(=O)Nc1cccc(C(F)(F)F)c1 (some centres unmarked) [Compound 50] | – | D (compounds with IC50 values between 701 nM and 110 nM are designated as D class compounds)

Continued, in another order:

Row | IC50 | Structure (SMILES) | IC50 (nM)
25 | 201 to 700 nM | O=C(CNC(=O)[C@H]1[C@@H]2CN(C3CC(CO)C3)C[C@@H]21)Nc1cccc(C(F)(F)F)c1 (some centres unmarked) [Compound 23] | –
26 | 51 to 200 nM | O=C(CNC(=O)[C@H]1[C@@H]2CN(C3C[C@@H]4CC[C@H]3C4)C[C@@H]21)Nc1cccc(C(F)(F)F)c1 (some centres unmarked) [Compound 27] | –
27 | 51 to 200 nM | CC1CCC(N2C[C@@H]3[C@H](C2)[C@H]3C(=O)NCC(=O)Nc2cccc(C(F)(F)F)c2)CC1 (some centres unmarked) [Compound 30] | –
28 | 51 to 200 nM | CC1CCCCC1N1C[C@@H]2[C@H](C1)[C@H]2C(=O)NCC(=O)Nc1cccc(C(F)(F)F)c1 (some centres unmarked) [Compound 31] | –
29 | 201 to 700 nM | CC1CCCC(N2C[C@@H]3[C@H](C2)[C@H]3C(=O)NCC(=O)Nc2cccc(C(F)(F)F)c2)C1 (some centres unmarked) [Compound 32] | –
30 | 201 to 700 nM | O=C(CNC(=O)[C@H]1[C@@H]2CN(C3CCCCCC3)C[C@@H]21)Nc1cccc(C(F)(F)F)c1 [Compound 33] | –
31 | 201 to 700 nM | O=C(CNC(=O)[C@H]1[C@@H]2CN(C3CCC(O)CC3)C[C@@H]21)Nc1cccc(C(F)(F)F)c1 (some centres unmarked) [Compound 34] | –
32 | 201 to 700 nM | O=C(NC1CCc2ccc(F)cc2C1)[C@H]1[C@@H]2CN([C@H]3CC[C@@H](c4ccccc4)CC3)C[C@@H]21 (some centres unmarked) [Compound 36] | –
33 | 201 to 700 nM | CC1(C)CCCC(N2C[C@@H]3[C@H](C2)[C@H]3C(=O)NCC(=O)Nc2cccc(C(F)(F)F)c2)C1 (some centres unmarked) [Compound 38] | –
34 | 51 to 200 nM | N#Cc1cccc(C2CCN(C(=O)[C@H]3[C@@H]4CN([C@H]5CC[C@@H](c6ccccc6)CC5)C[C@@H]43)C2)c1 (some centres unmarked) [Compound 40] | –
35 | 201 to 700 nM | N#Cc1ccc(C2CCN(C(=O)[C@H]3[C@@H]4CN([C@H]5CC[C@@H](c6ccccc6)CC5)C[C@@H]43)C2)cc1 (some centres unmarked) [Compound 41] | –
36 | 51 to 200 nM | O=C(NCc1cccc(C(F)(F)F)c1)[C@H]1[C@@H]2CN([C@H]3CC[C@@H](c4ccccc4)CC3)C[C@@H]21 [Compound 42] | –
37 | 201 to 700 nM | O=C1CC2CC(N3C[C@@H]4[C@H](C3)[C@H]4C(=O)NCC(=O)Nc3cccc(C(F)(F)F)c3)CC2C1 (some centres unmarked) [Compound 44] | –
38 | 201 to 700 nM | CC(C)C1CCC(N2C[C@@H]3[C@H](C2)[C@H]3C(=O)NCC(=O)Nc2cccc(C(F)(F)F)c2)CC1 (some centres unmarked) [Compound 45] | –
39 | 201 to 700 nM | O=C(NCCc1cccc(C(F)(F)F)c1)C1[C@H]2CN(C3CCCC3)C[C@@H]12 (some centres unmarked) [Compound 46] | –
40 | < 50 nM | O=C(NCCc1cccc(C(F)(F)F)c1)[C@H]1[C@@H]2CN([C@H]3CC[C@@H](c4ccccc4)CC3)C[C@@H]21 [Compound 48] | –
41 | 51 to 200 nM | O=C(CNC(=O)[C@H]1[C@@H]2CN(C3CC(c4ccccc4)C3)C[C@@H]21)Nc1cccc(C(F)(F)F)c1 (some centres unmarked) [Compound 49] | –
